For assay [1], the target named is T1, Recombinant wild type LRRK2 protein (Homo sapiens, UniProt Q5S007).
T1 construct: purchased Life Technologies PR8604B
Description: LRRK2 kinase activity assay (LanthaScreen TR-FRET), wild type. The format is biochemical. Conditions: 400 nM LRRKtide, 25 μM ATP, 60 min at room temperature; read-out: LRRK2 WT IC50. As for the experimental part:
(§1) LRRK2 kinase activity was measured using a LanthaScreen™ Kinase Activity Assay from ThermoFisher Scientific. Recombinant wild type or G2019S-LRRK2 protein (Life Technologies, PR8604B or PV4881, respectively), was incubated with a fluorescein-labeled peptide substrate called LRRKtide that is based upon ezrin/radixin/moesin (ERM) (Life Technologies, PV4901) in the presence of ATP and serially diluted compound. After an incubation period of 1 hr, the phosphotransferase activity was stopped and a terbium-labelled anti-pERM antibody (Life Technologies, PV4899) was added to detect the phosphorylation of LRRKtide by measuring the time resolved-Forster resonant energy transfer (TR-FRET) signal from the terbium label on the antibody to the fluorescein tag on LRRKtide, expressed as the 520 nm/495 nm emission ratio. Compound-dependent inhibition of the TR-FRET signal was used to generate a concentration-response curve for IC50 determination.
(§2) The assay was carried out under the following protocol conditions: 1 mM compound in DMSO was serially diluted 1:3, 11 points in DMSO with a Biomek FX and 0.1 μL of the diluted compound was subsequently stamped into the assay plate (384-well format Lumitrac 200, Greiner, 781075) with an Echo Labcyte such that the final compound concentration in the assay was 10 μM to […]. Subsequently, 5 μL of 2× kinase solution (2.9 nM final concentration) was added to the assay plate in assay buffer composed of 50 mM Tris pH 8.5 (Sigma, T6791), 5 mM MgCl2 (Fluka, 63020), 1 mM EGTA (Sigma, E3889), 0.01% BRU-35 (Sigma, P1254) and 2 mM DTT. The reaction was started by addition of 2×ATP/LRRKtide solution in assay buffer such that the final concentration was 400 nM LRRKtide and 25 μM ATP. After 60 min incubation at room temperature, the reaction was stopped by addition of […] containing a final concentration of 2 nM anti-pERM antibody and […]. After a 30 min incubation at RT, the TR-FRET signal was measured on a Wallac 2104 EnVision® multilabel reader at an excitation wavelength of 340 nm and reading emission at 520 nm and 495 nm. The ratio of the 520 nm and 495 nm emission was used to analyze the data.

For assay [2], the target named is T2, Recombinant G2019S-LRRK2 protein (Homo sapiens, UniProt Q5S007, G2019S).
T2 construct: purchased Life Technologies PV4881
T2 sequence (Q5S007 970-2527 G2019S limits assumed): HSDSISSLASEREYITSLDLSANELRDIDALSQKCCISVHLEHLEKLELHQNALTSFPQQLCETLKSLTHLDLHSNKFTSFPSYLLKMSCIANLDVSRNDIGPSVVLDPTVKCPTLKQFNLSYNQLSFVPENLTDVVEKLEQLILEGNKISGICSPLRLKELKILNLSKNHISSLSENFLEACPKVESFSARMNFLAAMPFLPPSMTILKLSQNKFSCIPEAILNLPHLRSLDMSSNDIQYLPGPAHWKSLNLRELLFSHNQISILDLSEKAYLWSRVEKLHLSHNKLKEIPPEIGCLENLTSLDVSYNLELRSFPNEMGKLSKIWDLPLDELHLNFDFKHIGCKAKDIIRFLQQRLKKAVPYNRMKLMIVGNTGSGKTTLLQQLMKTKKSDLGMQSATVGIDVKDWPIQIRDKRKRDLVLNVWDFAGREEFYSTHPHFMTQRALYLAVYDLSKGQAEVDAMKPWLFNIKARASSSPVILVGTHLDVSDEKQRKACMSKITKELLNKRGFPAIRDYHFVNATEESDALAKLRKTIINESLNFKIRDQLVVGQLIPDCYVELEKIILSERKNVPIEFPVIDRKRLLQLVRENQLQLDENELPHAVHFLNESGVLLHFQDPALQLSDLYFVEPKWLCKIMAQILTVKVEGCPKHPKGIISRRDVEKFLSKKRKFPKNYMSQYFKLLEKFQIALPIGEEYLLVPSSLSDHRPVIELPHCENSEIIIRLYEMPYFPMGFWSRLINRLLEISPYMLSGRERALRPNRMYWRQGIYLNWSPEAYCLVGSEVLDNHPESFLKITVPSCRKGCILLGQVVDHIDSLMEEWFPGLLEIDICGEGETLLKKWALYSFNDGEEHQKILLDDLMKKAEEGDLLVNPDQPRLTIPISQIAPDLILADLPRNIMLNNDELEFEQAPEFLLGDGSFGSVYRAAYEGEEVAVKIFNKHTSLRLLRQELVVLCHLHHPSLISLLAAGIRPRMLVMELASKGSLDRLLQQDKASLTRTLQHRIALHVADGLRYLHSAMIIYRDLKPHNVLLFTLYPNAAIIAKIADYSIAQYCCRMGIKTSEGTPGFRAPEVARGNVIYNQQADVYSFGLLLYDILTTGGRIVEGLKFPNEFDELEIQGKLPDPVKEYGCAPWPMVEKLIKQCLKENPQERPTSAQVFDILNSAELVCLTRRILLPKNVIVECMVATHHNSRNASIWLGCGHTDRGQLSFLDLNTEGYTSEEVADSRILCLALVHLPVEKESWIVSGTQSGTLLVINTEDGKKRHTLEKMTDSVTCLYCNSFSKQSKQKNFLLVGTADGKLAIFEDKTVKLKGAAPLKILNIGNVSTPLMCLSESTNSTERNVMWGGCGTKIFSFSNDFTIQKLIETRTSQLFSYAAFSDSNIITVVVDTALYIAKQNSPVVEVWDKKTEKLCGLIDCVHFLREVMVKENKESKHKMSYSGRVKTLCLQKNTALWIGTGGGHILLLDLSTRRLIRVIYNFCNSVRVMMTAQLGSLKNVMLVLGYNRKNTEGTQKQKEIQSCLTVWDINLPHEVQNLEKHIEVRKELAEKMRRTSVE
The experiment in a line: LRRK2 kinase activity assay (LanthaScreen TR-FRET), G2019S mutant. The assay is classed as biochemical. Conditions: 400 nM LRRKtide, 25 μM ATP, 60 min at room temperature. As for the experimental part:
as §1, §2
On the technique in general: In TR-FRET formats the signal depends on donor and acceptor labels being close together.

Usually IC50 stands for the concentration needed to halve the response being measured.

Each structure is given as a SMILES string.

T1 sequence (Q5S007 whole entry): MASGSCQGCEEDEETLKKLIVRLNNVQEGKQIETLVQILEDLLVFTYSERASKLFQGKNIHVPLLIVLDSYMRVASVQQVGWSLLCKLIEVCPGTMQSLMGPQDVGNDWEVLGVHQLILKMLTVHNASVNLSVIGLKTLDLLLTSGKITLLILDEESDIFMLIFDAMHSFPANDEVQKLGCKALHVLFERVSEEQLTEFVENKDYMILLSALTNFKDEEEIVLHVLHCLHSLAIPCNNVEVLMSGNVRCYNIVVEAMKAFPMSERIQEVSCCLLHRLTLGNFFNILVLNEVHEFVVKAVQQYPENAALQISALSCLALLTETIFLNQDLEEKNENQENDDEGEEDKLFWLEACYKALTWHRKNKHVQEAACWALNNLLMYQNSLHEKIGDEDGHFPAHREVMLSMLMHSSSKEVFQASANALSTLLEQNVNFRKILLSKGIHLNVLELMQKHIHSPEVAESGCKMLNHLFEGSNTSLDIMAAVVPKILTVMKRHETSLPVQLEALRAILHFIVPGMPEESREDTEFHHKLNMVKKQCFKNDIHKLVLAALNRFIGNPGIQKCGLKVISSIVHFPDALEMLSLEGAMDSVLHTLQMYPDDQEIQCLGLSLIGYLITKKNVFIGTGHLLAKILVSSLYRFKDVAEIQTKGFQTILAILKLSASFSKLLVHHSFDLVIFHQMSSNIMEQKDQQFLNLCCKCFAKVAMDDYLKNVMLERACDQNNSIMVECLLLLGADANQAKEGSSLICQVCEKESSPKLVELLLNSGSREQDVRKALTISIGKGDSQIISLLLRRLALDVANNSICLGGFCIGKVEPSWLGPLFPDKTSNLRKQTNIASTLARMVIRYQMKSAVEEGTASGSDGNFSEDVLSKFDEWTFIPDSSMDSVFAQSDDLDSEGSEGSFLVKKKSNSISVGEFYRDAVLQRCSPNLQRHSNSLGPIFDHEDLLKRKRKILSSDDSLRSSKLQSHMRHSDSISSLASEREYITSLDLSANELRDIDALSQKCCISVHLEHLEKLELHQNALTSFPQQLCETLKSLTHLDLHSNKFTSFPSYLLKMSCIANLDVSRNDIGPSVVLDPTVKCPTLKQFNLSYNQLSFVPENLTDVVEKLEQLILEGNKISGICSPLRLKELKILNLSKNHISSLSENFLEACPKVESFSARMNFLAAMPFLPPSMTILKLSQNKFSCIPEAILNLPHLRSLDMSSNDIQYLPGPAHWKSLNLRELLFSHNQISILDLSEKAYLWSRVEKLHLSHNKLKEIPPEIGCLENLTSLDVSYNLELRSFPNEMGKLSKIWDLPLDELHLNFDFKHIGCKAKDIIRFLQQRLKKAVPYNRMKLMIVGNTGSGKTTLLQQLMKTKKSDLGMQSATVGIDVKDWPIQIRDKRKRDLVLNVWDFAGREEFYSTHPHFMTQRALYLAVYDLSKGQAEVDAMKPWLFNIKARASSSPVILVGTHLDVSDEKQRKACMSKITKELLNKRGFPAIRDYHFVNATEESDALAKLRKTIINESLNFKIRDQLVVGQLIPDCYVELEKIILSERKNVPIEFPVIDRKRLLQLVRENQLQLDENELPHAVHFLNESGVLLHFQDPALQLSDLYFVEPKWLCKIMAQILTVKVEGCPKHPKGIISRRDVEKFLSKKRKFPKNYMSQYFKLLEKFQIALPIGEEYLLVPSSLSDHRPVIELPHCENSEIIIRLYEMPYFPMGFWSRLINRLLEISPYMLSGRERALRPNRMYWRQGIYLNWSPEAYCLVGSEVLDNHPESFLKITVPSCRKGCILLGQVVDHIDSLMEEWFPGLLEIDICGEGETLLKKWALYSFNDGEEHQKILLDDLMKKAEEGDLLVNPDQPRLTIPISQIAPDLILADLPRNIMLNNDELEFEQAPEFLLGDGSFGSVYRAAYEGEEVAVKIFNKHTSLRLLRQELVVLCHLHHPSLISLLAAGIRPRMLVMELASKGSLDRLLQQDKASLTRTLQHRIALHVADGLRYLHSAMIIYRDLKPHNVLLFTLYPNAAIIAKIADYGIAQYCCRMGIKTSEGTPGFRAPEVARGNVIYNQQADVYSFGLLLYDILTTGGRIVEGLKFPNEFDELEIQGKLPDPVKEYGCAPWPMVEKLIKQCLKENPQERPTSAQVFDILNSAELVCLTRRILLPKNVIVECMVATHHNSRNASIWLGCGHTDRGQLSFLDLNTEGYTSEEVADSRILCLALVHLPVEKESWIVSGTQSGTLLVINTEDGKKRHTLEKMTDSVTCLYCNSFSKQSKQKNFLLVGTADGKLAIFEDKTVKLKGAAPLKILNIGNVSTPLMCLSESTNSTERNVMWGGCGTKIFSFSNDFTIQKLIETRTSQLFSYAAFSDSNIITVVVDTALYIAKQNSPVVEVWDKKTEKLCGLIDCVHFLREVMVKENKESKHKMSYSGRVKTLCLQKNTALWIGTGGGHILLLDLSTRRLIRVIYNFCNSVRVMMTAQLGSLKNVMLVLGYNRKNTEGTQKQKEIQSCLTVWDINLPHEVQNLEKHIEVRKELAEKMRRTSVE

For `CC1=C(C(=O)Nc2ccc3[nH]nc(C(N)=O)c3c2)Cn2nnnc2N1C` [Example 18, N-(3-carbamoyl-2H-indazol-5-yl)-4,5-dimethyl-4,7-dihydrotetrazolo[1,5-a]pyrimidine-6-carboxamide], the results for the half-maximal inhibitory concentration (IC50) in assay [1] and in assay [2] were 100 to 1000 nM and at most 100 nM, respectively.

As to `CC1=C(C(=O)Nc2ccc3[nH]nc(-c4ccc(S(N)(=O)=O)cc4)c3c2)Cn2nnnc2N1C` [Example 11, 4,5-Dimethyl-N-(3-(4-sulfamoylphenyl)-1H-indazol-5-yl)-4,7-dihydrotetrazolo[1,5-a]pyrimidine-6-carboxamide], the IC50 in assay [1] and in assay [2] was at most 100 nM in each case. On to `CC(=O)Nc1[nH]nc2ccc(NC(=O)C3=C(C)N(C)c4nnnn4C3)cc12` [Example 28, N-(3-acetamido-2H-indazol-5-yl)-4,5-dimethyl-4,7-dihydrotetrazolo[1,5-a]pyrimidine-6-carboxamide], for which the IC50 in assay [1] was above 10000 nM; in assay [2] it was 1000 to 10000 nM.

On to `COc1cc2n[nH]cc2cc1NC(=O)C1=C(C)N(C)c2nnnn2C1` [Example 17, N-(6-methoxy-2H-indazol-5-yl)-4,5-dimethyl-4,7-dihydrotetrazolo[1,5-a]pyrimidine-6-carboxamide], for which the half-maximal inhibitory concentration (IC50) in assay [1] was above 10000 nM; in assay [2], 1000 to 10000 nM. The like results for `CC1=C(C(=O)Nc2ccc3n[nH]c(NC(=O)Cc4ccc(N(C)C)cc4)c3c2)Cn2nnnc2N1C` [Example 52, N-(3-(2-(4-(Dimethylamino)phenyl)acetamido)-2H-indazol-5-yl)-4,5-dimethyl-4,7-dihydrotetrazolo[1,5-a]pyrimidine-6-carboxamide] were, in that order, 1000 to 10000 nM and 100 to 1000 nM.

For the compound `CC1=C(C(=O)Nc2ccc3c(c2)CC(=O)N3)Cn2nnnc2N1C` [Example 29, 4,5-dimethyl-N-(2-oxoindolin-5-yl)-4,7-dihydrotetrazolo[1,5-a]pyrimidine-6-carboxamide], the IC50 in assay [2] is 1000 to 10000 nM. Regarding `CC1=C(C(=O)Nc2ccc3[nH]c(=O)n(C)c3c2)[C@@H](C)n2nnnc2N1C` [Example 47, (R)-4,5,7-Trimethyl-N-(3-methyl-2-oxo-2,3-dihydro-1H-benzo[d]imidazol-5-yl)-4,7-dihydrotetrazolo[1,5-a]pyrimidine-6-carboxamide], the IC50 is 1000 to 10000 nM in assay [1] and at most 100 nM in assay [2]. As for `CCC1C(C(=O)Nc2ccc3[nH]ncc3c2)=C(C)N(C)c2nnnn21` (single isomer, unassigned) [Example 8b], the values for the half-inhibitory concentration (IC50) in assay [1] and in assay [2] were 100 to 1000 nM and at most 100 nM, respectively. For `CC1=C(C(=O)Nc2cc3c[nH]nc3cc2F)Cn2nnnc2N1C` [Example 19, N-(6-fluoro-2H-indazol-5-yl)-4,5-dimethyl-4,7-dihydrotetrazolo[1,5-a]pyrimidine-6-carboxamide], the IC50 in assay [1] and in assay [2] was 100 to 1000 nM in each case. Consider `CC1=C(C(=O)Nc2ccc3c(N)nccc3c2)[C@@H](C)n2nnnc2N1C` [Example 42, (R)—N-(1-Aminoisoquinolin-6-yl)-4,5,7-trimethyl-4,7-dihydrotetrazolo[1,5-a]pyrimidine-6-carboxamide], for which the IC50 in assay [1] is 100 to 1000 nM; in assay [2], at most 100 nM.

In the case of `CC1=C(C(=O)Nc2ccc3[nH]nc(-c4ccnc(N5CCOCC5)c4)c3c2)[C@@H](C)n2nnnc2N1C` (single isomer, unassigned) [Example 24a], the IC50 in assay [1] and in assay [2] was at most 100 nM in each case.

As to `CC1=C(C(=O)Nc2ccc3[nH]nc(-c4ccncc4)c3c2)Cn2nnnc2N1C` [Example 6, 4,5-dimethyl-N-(3-(pyridin-4-yl)-1H-indazol-5-yl)-4,7-dihydrotetrazolo[1,5-a]pyrimidine-6-carboxamide], the IC50 in assay [1] and in assay [2] was at most 100 nM each time. In the case of `CC1=C(C(=O)Nc2ccc3[nH]ncc3c2)C(C)(C)n2nnnc2N1C` [Example 26, N-(2H-indazol-5-yl)-4,5,7,7-tetramethyl-4,7-dihydrotetrazolo[1,5-a]pyrimidine-6-carboxamide], the IC50 in assay [1] was 1000 to 10000 nM; in assay [2] it was at most 100 nM. Consider `CC1=C(C(=O)Nc2cc3c[nH]nc3cc2N)C(C)n2nnnc2N1C` (centres unmarked) [Example 25, N-(6-amino-2H-indazol-5-yl)-4,5,7-trimethyl-4,7-dihydrotetrazolo[1,5-a]pyrimidine-6-carboxamide], for which the IC50 in assay [1] and in assay [2] was 1000 to 10000 nM throughout. In the case of `CCC1C(C(=O)Nc2ccc3[nH]ncc3c2)=C(C)N(C)c2nnnn21` (single isomer, unassigned) [Example 8a], the 50% inhibitory concentration (IC50) in assay [1] was 100 to 1000 nM; in assay [2] it was at most 100 nM. Take `CC1=C(C(=O)Nc2ccc3[nH]nc(Br)c3c2)Cn2nnnc2N1C` [Example 10, N-(3-Bromo-1H-indazol-5-yl)-4,5-dimethyl-4,7-dihydrotetrazolo[1,5-a]pyrimidine-6-carboxamide]: the IC50 in assay [1] and in assay [2] was at most 100 nM throughout. With `CC1=C(C(=O)Nc2ccc3[nH]ncc3c2)Cn2nnnc2N1c1ccccc1` [Example 13, N-(1H-indazol-5-yl)-5-methyl-4-phenyl-4,7-dihydrotetrazolo[1,5-a]pyrimidine-6-carboxamide], the IC50 in assay [1] and in assay [2] was at most 100 nM in each case. For the compound `CC1=C(C(=O)Nc2ccc3[nH]c(=O)oc3c2)Cn2nnnc2N1C` [Example 30, 4,5-dimethyl-N-(2-oxo-2,3-dihydrobenzo[d]oxazol-6-yl)-4,7-dihydrotetrazolo[1,5-a]pyrimidine-6-carboxamide], the 50% inhibitory concentration (IC50) in assay [1] was above 10000 nM; in assay [2], 1000 to 10000 nM. The like results for `CC1=C(C(=O)Nc2ccc3c(c2)C(C)(C)NC3=O)[C@@H](C)n2nnnc2N1C` [Example 49, (R)—N-(3,3-Dimethyl-1-oxoisoindolin-5-yl)-4,5,7-trimethyl-4,7-dihydrotetrazolo[1,5-a]pyrimidine-6-carboxamide] were, in that order, above 10000 nM and above 10000 nM. For the compound `CC1=C(C(=O)Nc2ccc3[nH]c(=O)[nH]c3c2)Cn2nnnc2N1C` [Example 31, 4,5-dimethyl-N-(2-oxo-2,3-dihydro-1H-benzo[d]imidazol-5-yl)-4,7-dihydrotetrazolo[1,5-a]pyrimidine-6-carboxamide], the half-maximal inhibitory concentration (IC50) in assay [1] is 1000 to 10000 nM; in assay [2], 100 to 1000 nM. For `CC1=C(C(=O)Nc2ccc3[nH]nc(-c4cc(N5CCOCC5)ncn4)c3c2)Cn2nnnc2N1C` [Example 9, 4,5-Dimethyl-N-(3-(6-morpholinopyrimidin-4-yl)-1H-indazol-5-yl)-4,7-dihydrotetrazolo[1,5-a]pyrimidine-6-carboxamide], the IC50 in assay [1] and in assay [2] was at most 100 nM in each case. `CC1=C(C(=O)Nc2ccc3[nH]nc(C)c3c2)C(C)(C)n2nnnc2N1C` [Example 60, 4,5,7,7-Tetramethyl-N-(3-methyl-2H-indazol-5-yl)-4,7-dihydrotetrazolo[1,5-a]pyrimidine-6-carboxamide]: the IC50 in assay [1] is 100 to 1000 nM; in assay [2], at most 100 nM. For the compound `CC1=C(C(=O)Nc2ccc3[nH]nc(-c4ccncc4)c3c2)[C@@H](C)n2nnnc2N1C` [Example 27, (R)-4,5,7-trimethyl-N-(3-(pyridin-4-yl)-1H-indazol-5-yl)-4,7-dihydrotetrazolo[1,5-a]pyrimidine-6-carboxamide], the concentration for half-maximal inhibition (IC50) in assay [1] and in assay [2] was at most 100 nM throughout. For the compound `CC1=C(C(=O)Nc2ccc3[nH]nc(-c4ccnc(N5CCOCC5)c4)c3c2)Cn2nnnc2N1C` [Example 7, 4,5-Dimethyl-N-(3-(2-morpholinopyridin-4-yl)-1H-indazol-5-yl)-4,7-dihydrotetrazolo[1,5-a]pyrimidine-6-carboxamide], the IC50 in assay [1] and in assay [2] was at most 100 nM each time. `CC1=C(C(=O)Nc2ccc3[nH]ncc3c2)C(C)n2nnnc2N1C` (single isomer, unassigned) [Example 2b]: the concentration for half-maximal inhibition (IC50) was in the range of 1000 to 10000 nM in assay [1] and 100 to 1000 nM in assay [2].

Consider `CC1=C(C(=O)Nc2ccc3[nH]ncc3c2)Cn2nnnc2N1CCN1CCOCC1` [Example 4, N-(1H-Indazol-5-yl)-5-methyl-4-[2-(morpholin-4-yl)ethyl]-4H,7H-[1,2,3,4]tetrazolo[1,5-a]pyrimidine-6-carboxamide], for which the IC50 in assay [1] and in assay [2] was 1000 to 10000 nM in each case. On to `CC1=C(C(=O)Nc2ccc3[nH]ncc3c2)Cn2nnnc2N1C` [Example 1, N-(1H-Indazol-5-yl)-4,5-dimethyl-4H,7H-[1,2,3,4]tetrazolo[1,5-a]pyrimidine-6-carboxamide], for which the IC50 was 100 to 1000 nM in assay [1] and at most 100 nM in assay [2].
